Assay results reported in US20230052740A1, “MODULATORS OF CIRCADIAN RHYTHMS AND USES THEREOF” (The Regents of the University of California, priority 2019, published 2023).
Read-outs that look alike come from different tables or passages of the source.

Assays:
[1] = molecular target: T1, MT2 (Homo sapiens, UniProt P49286); assay: cAMP assay (GloSensor), isoproterenol-stimulated cAMP in HEK cells; type: cell-based; set-up: expressed in transfected cells; host or cells: HEK-T (HEK-293 T) cells, co-transfected with GloSensor DNA; MT2 activity: dose or concentration left out as unconfirmed; conditions: for MT2 selectivity (agonist) / type selectivity / efficacy at the MT2 receptor: panel of widely-used MTR ligands; for type selectivity / efficacy at the MT2 receptor: in words
T1 sequence (P49286 1-362): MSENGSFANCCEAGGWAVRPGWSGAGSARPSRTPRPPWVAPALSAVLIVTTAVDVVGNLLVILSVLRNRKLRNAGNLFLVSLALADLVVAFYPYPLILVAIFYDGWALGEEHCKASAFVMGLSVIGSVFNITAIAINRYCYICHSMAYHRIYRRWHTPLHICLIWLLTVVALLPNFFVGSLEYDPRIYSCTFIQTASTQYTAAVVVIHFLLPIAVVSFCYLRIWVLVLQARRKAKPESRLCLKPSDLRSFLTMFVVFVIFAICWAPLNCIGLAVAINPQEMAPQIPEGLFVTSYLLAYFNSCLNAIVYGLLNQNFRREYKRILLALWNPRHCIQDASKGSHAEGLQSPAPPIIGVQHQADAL
Protocol: MT1 and MT2 receptors were tested using Promega's spilt luciferase based GboSensor cAMP biosensor technology. HEK-T cells were plated in 15 cm cell culture dish (at a density of 18 million cells) containing DMEM composed of 10% dialyzed FBS, 2 mM L-glutamine, 100 units/ml penicillin G, 100 μg/ml streptomycin for 4-6 hour. Then, cells were co-transfected with 8 μg of construct which encodes either MT1 or MT2 (de-Tangonized constructs) and […] of Glosensor DNA. […] The next day, cell medium were discarded and loaded with 20 μl of assay buffer (1×HBSS, 20 mM HEPES, pH 7.4, 0.1% BSA). To measure agonist activity of MT1 or MT2 receptor, 10 μl of test compound solution at 3× final concentration was added for 15 minutes followed by addition of 10 μl of luciferin/isoproterenol mixture (at a final concentration of 4 mM and 200 nM respectively) for another 15 mins for luminescence quantification. Then, plates were counted using SpectraMax luminescence reader (Molecular Device). Data were analyzed using GraphPad Prism 6.0.

[2] = molecular target: hMT1 (Homo sapiens, UniProt P48039); assay: as above; type: cell-based; set-up: expressed in transfected cells; host or cells: HEK-T (HEK-293 T) cells, co-transfected with GloSensor DNA
hMT1, sequence (P48039 whole entry): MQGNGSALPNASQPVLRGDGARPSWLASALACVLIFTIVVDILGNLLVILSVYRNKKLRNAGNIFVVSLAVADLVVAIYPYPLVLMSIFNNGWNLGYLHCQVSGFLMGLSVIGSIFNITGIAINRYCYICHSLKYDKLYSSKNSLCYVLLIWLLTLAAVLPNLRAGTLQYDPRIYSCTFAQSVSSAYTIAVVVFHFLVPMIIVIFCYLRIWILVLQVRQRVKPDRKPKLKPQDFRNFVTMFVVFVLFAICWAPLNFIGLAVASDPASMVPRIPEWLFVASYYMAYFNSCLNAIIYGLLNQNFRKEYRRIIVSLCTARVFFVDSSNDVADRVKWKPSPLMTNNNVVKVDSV
Protocol: HEK-293 T cells were maintained with complete Dulbecco's modified Eagle's medium (DMEM), which is composed of 10% fetal bovine serum (FBS), 2 mM L-glutamine, 100 units/ml penicillin G, 100 μg/ml streptomycin at 37° C. in the presence of 5% CO2
MT1 and MT2 receptors were tested using Promega's spilt luciferase based GboSensor cAMP biosensor technology. HEK-T cells were plated in 15 cm cell culture dish (at a density of 18 million cells) containing DMEM composed of 10% dialyzed FBS, 2 mM L-glutamine, 100 units/ml penicillin G, 100 μg/ml streptomycin for 4-6 hour. Then, cells were co-transfected with 8 μg of construct which encodes either MT1 or MT2 (de-Tangonized constructs) and […] of Glosensor DNA. Next day, transfected cells were seeded into poly-L-lysinecoated 384-well white clear bottom cell culture plates with complete DMEM with 1% dialized FBS at a density of 20,000 cells per well for another 24 h. The next day, cell medium were discarded and loaded with 20 μl of assay buffer (1×HBSS, 20 mM HEPES, pH 7.4, 0.1% BSA). To measure agonist activity of MT1 or MT2 receptor, 10 μl of test compound solution at 3× final concentration was added for 15 minutes followed by addition of 10 μl of luciferin/isoproterenol mixture (at a final concentration of 4 mM and 200 nM respectively) for another 15 mins for luminescence quantification. Then, plates were counted using SpectraMax luminescence reader (Molecular Device). Data were analyzed using GraphPad Prism 6.0.

[3] = HEK293, Table 2, cell marked Inverse (inverse agonist), read-out: MT2 % Emax (converted)
[4] = Table 2, cell marked Inverse (inverse agonist)
[5] = HEK293, Table 2, cell marked Inverse (inverse agonist), read-out: MT1 % Emax (converted)
[6] = HEK293, Table 2, agonist, normalized to melatonin response, read-out: MT1 % Emax (converted)
[7] = HEK293, Table 1, agonist, normalized to melatonin response, read-out: MT2 % Emax (converted)
[8] = HEK293, Table 1, agonist, normalized to melatonin response, read-out: MT1 % Emax (converted)
[9] = HEK293, Table 1, cell marked Inverse (inverse agonist), read-out: MT2 % Emax (converted)
[10] = inverse agonist, read-out: EC50 at MT2
[11] = Table 1, cell marked Inverse (inverse agonist)
[12] = HEK293, Table 6, Inverse (inverse agonist), read-out: MT1 Emax
[13] = Table 6, Inverse (inverse agonist), read-out: MT1 pEC50 (converted)
[14] = HEK293, Table 2, agonist, normalized to melatonin response, read-out: MT2 % Emax (converted)

## Cc1nnc(-c2cccc(NCc3ccc(Cl)cc3)c2)[nH]1 [ZINC37781620]
[1]; [3]
  Emax: 120%
[1]; [4]
  MT2 pEC50: 6.20 ± 0.10
[2]; [5]
  Emax: 19%
[2]; [4]
  MT1 pEC50: 7.90 ± 0.90

## COc1ccc(CNc2cccc(-n3nccn3)c2)cc1 [ZINC864032792]
[1]; [3]
  Emax: 35%
[1]; [4]
  MT2 pEC50: 6.66 ± 0.08
[2]; [6]
  Emax: 57%
[2]; Table 2, agonist
  MT1 pEC50: 7.49 ± 0.04

## Cn1c(=O)oc2c(NCc3ccc(-c4cc[nH]n4)o3)cccc21 [ZINC433313647]
[1]; [7]
  Emax: 96%
[2]; [8]
  Emax: 42%
[2]; Table 1, agonist
  MT1 pEC50: 6.81 ± 0.32

## COC(=O)c1cc(Cn2ccn3c(=O)cc(C)nc23)c(C)s1 [ZINC419113878]
[1]
  MT2 activity: without detectable MT2 activity
[2]; [8]
  Emax: 84%
[2]; Table 1, agonist
  MT1 pEC50: 5.20 ± 0.08
[2]; agonist, read-out: EC50 at MT1
  EC50: 2000 to 6000 nM

## CC(=O)NCCc1c[nH]c2ccccc12 [N-acetyl tryptamine, reference compound]
[1]
  MT2 selectivity (agonist): 39 fold

## CCC(=O)NCC[C@@H]1CCc2ccc3c(c21)CCO3 [ramelteon, reference compound]
[1]
  type selectivity: little type selectivity

## CN(Cc1ccc2c(c1)OCO2)c1ccnc(Cl)c1 [ZINC301472854]
[1]; [7]
  Emax: 88%
[2]; [8]
  Emax: 95%
[2]; Table 1, agonist
  MT1 pEC50: 6.03 ± 0.10

## CCOC(=O)c1nc(N(C)CC2CCCC2O)ccc1Br (stereo not shown) [ZINC603324490]
[1]; [9]
  Emax: 202%
[1]; [10]
  EC50: 600 nM
[2]; HEK293, Table 1, cell marked Inverse (inverse agonist), read-out: MT1 % Emax (converted)
  Emax: 37%
[2]; [11]
  MT1 pEC50: 5.92 ± 0.29
[2]; in the concentration range of its MT2 inverse agonism (600 nM)
  MT1 efficacy: without substantial MT1 efficacy

## c1cc(NCc2ccc(C3CCC3)nc2)cc(-c2cc[nH]n2)c1 [Compound Z3668902476]
[2]; [12]
  Emax: 30%
[2]; [13]
  EC50: 75.9 nM

## COc1ccc(CNc2cccc(-c3nnc[nH]3)c2)cc1 [ZINC157665999]
[1]; [9]
  Emax: 90%
[1]; [11]
  MT2 pEC50: 7.29 ± 0.16
[1]; [10]
  EC50: 50 nM
[2]; [8]
  Emax: 63%
[2]; Table 1, agonist
  MT1 pEC50: 4.89 ± 0.38
[2]; agonist, read-out: EC50 at MT1
  EC50: 10000 nM

## COc1ccc(CN(C(=O)OC2CCC2)c2ccncc2)cc1 [ZINC497291360]
[1]; FIG. 7 analogs of '9032
  selectivity for MT2 over MT1: 2 fold
[1]; [14]
  Emax: 75 ± 50.1%
[1]; Table 2, agonist
  MT2 pEC50: 7.48 ± 0.05
[2]; [6]
  Emax: 92%
[2]; Table 2, agonist
  MT1 pEC50: 7.05 ± 0.10

## Clc1cc(Br)ccc1CNc1cccc(-c2nnc[nH]2)c1 [ZINC516666069]
[1]; [3]
  Emax: 118%
[1]; [4]
  MT2 pEC50: 5.58 ± 0.04
[2]; [5]
  Emax: 42%
[2]; [4]
  MT1 pEC50: 7.05 ± 0.03

## COc1ccc(CN(C)C(=O)c2cccc(OC(F)F)c2)cc1O [ZINC353044322]
[1]
  MT2 activity: without detectable MT2 activity
[2]; [8]
  Emax: 87%
[2]; Table 1, agonist
  MT1 pEC50: 5.48 ± 0.05
[2]; agonist, read-out: EC50 at MT1
  EC50: 2000 to 6000 nM

## COC(=O)c1ccc(I)c(Oc2ccnc(C)n2)c1 [ZINC432154404]
[1]; [7]
  Emax: 74%
[2]; [8]
  Emax: 95%
[2]; Table 1, agonist
  MT1 pEC50: 6.63 ± 0.17

## COc1ccc(CNc2cccnc2C)cc1C [ZINC91496083]
[1]; [14]
  Emax: 106%
[1]; Table 2, agonist
  MT2 pEC50: 7.15 ± 0.17
[2]; [6]
  Emax: 66%
[2]; Table 2, agonist
  MT1 pEC50: 4.65 ± 0.44

## COc1cccc2c1CCN(C(=O)c1ccc(F)nc1)C2 [ZINC182731037]
[1]
  MT2 activity: without detectable MT2 activity
[2]; [8]
  Emax: 82%
[2]; Table 1, agonist
  MT1 pEC50: 5.30 ± 0.09
[2]; agonist, read-out: EC50 at MT1
  EC50: 2000 to 6000 nM

## COc1ccc(C2CC2)c(CNc2cccnc2)c1
[1]; HEK293, Table 5, read-out: MT2 Emax
  Emax: 75 ± 5%
[1]; Table 5, MT2 receptor agonists, read-out: MT2 pEC50 (converted)
  EC50: 1.82 nM

## COc1ccc(CNc2cccnc2)cc1 [ZINC5586789]
[1]; [14]
  Emax: 51%
[1]; Table 2, agonist
  MT2 pEC50: 8.07 ± 0.15
[2]; [6]
  Emax: 37%
[2]; Table 2, agonist
  MT1 pEC50: 6.81 ± 0.72

## CCCCC(=O)NCCc1c(Cc2ccccc2)[nH]c2ccccc12 [DH97, reference compound]
[1]
  efficacy at the MT2 receptor: partial agonism

## CN(Cc1ccc2c(c1)OCO2)c1ccnc(Cl)c1 [ZINC223593565]
[1]; [14]
  Emax: 58%
[2]; [6]
  Emax: 86%

## COc1ccc(CN(C(=O)c2scc(C)c2Cl)c2ccncc2)cc1 [ZINC485552623]
[1]; [14]
  Emax: 107%
[1]; Table 2, agonist
  MT2 pEC50: 5.80 ± 0.06
[2]; FIG. 7D, in words
  MT1 activity: without detectable MT1 activity

## COC(=O)c1cc(Cn2nc(C)c(N)c2C)c(C)s1 [ZINC602421874]
[1]; [14]
  Emax: 66%
[1]; Table 2, agonist
  MT2 pEC50: 5.35 ± 0.10
[2]; [6]
  Emax: 51%
[2]; Table 2, agonist
  MT1 pEC50: 4.70 ± 0.11

## CCC(=O)NC1Cc2ccccc2C(c2ccccc2)C1 (stereo not shown) [Compound 4P-PDOT, reference compound]
[1]
  MT2 selectivity (agonist): 150 fold

## COC(=O)c1csc(CSc2nnc(C3CC3)[nH]2)c1 [ZINC713465976]
[1]; [14]
  Emax: 94%
[1]; Table 2, agonist
  MT2 pEC50: 8.23 ± 0.11
[2]; [6]
  Emax: 101%
[2]; Table 2, agonist
  MT1 pEC50: 7.75 ± 0.22

## COCCN(Cc1ccc2c(c1)OCO2)c1nc(C(F)(F)F)ns1 [ZINC580731466]
[1]
  selectivity for the MT2 receptor: ~100 fold
[1]; [7]
  Emax: 98%
[2]; [8]
  Emax: 71%
[2]; Table 1, agonist
  MT1 pEC50: 5.70 ± 0.13

## CCC(=O)NC1CCc2cccc(OC)c2C1 (stereo not shown) [Compound 8M-PDOT, reference compound]
[1]
  type selectivity: little type selectivity

## CC(=O)NCCc1c(Cc2ccccc2)[nH]c2ccccc12 [Luzindole, reference compound]
[1]
  efficacy at the MT2 receptor: partial agonism

## Cc1nc(-c2cccc(NCc3ncc(Cl)cc3Br)c2)n[nH]1 [Compound Z3668902489]
[2]; [12]
  Emax: 47%
[2]; [13]
  EC50: 245 nM

## COc1ccc2cccc(CCNC(C)=O)c2c1 [agomelatine, reference compound]
[1]
  type selectivity: little type selectivity

## Cc1cc(=O)n2ccn(CCc3ccc4c(c3)OC(F)(F)O4)c2n1 [ZINC664088238]
[1]; [7]
  Emax: 75%
